Reference: patent US20070142465A1, “Macrophage activation inhibitor” (priority 2003, published 2007)

Key:
[1] = test system: RAW264.7 cells; test: COX-2 production in LPS-activated RAW264.7 cells (Western blot); assay type: cell-based; conditions: LPS 10 μg/ml, 24 h, 1, 3, 10 μg/ml compound
From the text: It is known that macrophages activated by inflammatory stimuli and growth factor produces COX-2, a prostaglandin synthase, which is responsible for various pathological conditions such as inflammation, cancer cell proliferation, cancer development, angiogenesis, tumor metastasis, etc. Further, it has recently been known that, in systemic lupus erythematosus (SLE), which is an autoimmune disease, self-reactive T cells acquire resistance to apoptosis with increasing COX-2 expression (Nature Medicine 10, 411-415, 2004) Thus, on the assumption that use of (±)-DHM2EQ might make it possible to inhibit macrophage activation and thereby to suppress COX-2 production, the effect of (±)-DHM2EQ on COX-2 production in RAW264.7 cells derived from macrophages activated by LPS stimulation was examined.
RAW264.7 cells were plated at 4×10^6 cells/dish in a 100 mm dish (Coaster:Acton, Mass.) containing DMEM medium, and the plates were incubated overnight at 37° C. under 5% CO2. Then, (±)-DHM2EQ (final concentrations: 1, 3, and 10 μg/ml) was added followed by 2-hour incubation and then LPS (final concentration: 10 μg/ml) was added followed by 24-hour stimulation. The cells were then recovered and lysed with 65 μl of lysis buffer (50 mM Tris-HCl: pH 8.0, 1% NP-40, 20 mM EDTA, 100 mM NaVO4, 0.1 mg/ml leupeptin, 1 mM PMSF) and SDS-PAGE was performed. […]

[2] = test system: RAW264.7 cells; test: IL-1β secretion from LPS-activated RAW264.7 cells (ELISA); assay type: cell-based, mouse; conditions: LPS 10 μg/ml, 24 h, 0, 1, 3, 10 μg/ml compound
Protocol: Next, the effect of (±)-DHM2EQ on IL-1β secretion, which is another marker of macrophage activation in macrophage-derived RAW264.7 cells activated by […], was examined.
500 μl of RAW264.7 cells were plated in each well at a concentration of 4×10^5 cells/ml, and the plates were incubated at 37° C. for 1-day. (±)-DHM2EQ (final concentrations: 0, 1, 3, and 10 μg/ml) was then added followed by 2-hour incubation and then LPS (final concentration: 10 μg/ml) was added followed by 24-hour stimulation. After the stimulation, the cell supernatant was recovered (500 μ/l each), and centrifuged at 15000 rpm for 2 min, and the insoluble fractions were removed; the samples were thus obtained.
The amount of IL-1β secretion was examined using mouse IL-1β ELISA assay kit (R&D Systems; Minneapolis, U.S.). First, 50 μl of Reaction Buffer was added to 96-well microplates, on which mouse IL-1β antibody (polyclonal antibody) had been fixed, and 50 βl of the aforementioned sample were applied to each well of the plates. […] Subsequently, 100 μl of stopping solution was added and the OD value at 450 nm was measured using a microplate reader. Then, the concentration of IL-1β was determined from the calibration curve constructed using mouseIL-1β standard supplied with mouse IL-1β ELISA assay kit.

[3] = test system: RAW264.7 cells; test: Phagocytosis of fluorescent-labeled E. coli by activated RAW264.7 cells; assay type: cell-based
From the text: Macrophages contribute to host defense mechanism by, when infected with bacteria, engulfing the whole or part of the bacteria as foreign matter and digesting the foreign matter in the lysosome containing hydrolytic enzymes, etc. This penomenon of engulfing foreign matter, referred to as phagocytosis, is marker of macrophage activation. Thus, by using as a marker phagocytotic ability of RAW264.7 cells derived from macrophages activated by the LPS or IL-1β stimulation, the effect of (±)-DHM2EQ on macrophage activation was examined.
500 μl of RAW264.7 cells were plated in each chamber at a concentration of 4×10^5 cells/ml in chamber slides. After an overnight incubation, (±)-DHM2EQ was added, and the slides were incubated for 2 hours. LPS (final concentration: 1 μg/ml) was then added, and the slides were incubated for 10 mins and then washed with 750 μl of PBS two times. Subsequently, PBS was removed and 250 μl of the solution containing fluorescent-labeled E. coli (Molecular probes, U.S.) (i.e. a solution of fluorescent-labeled E. coli diluted with […] of PBS) was added to each chamber, and the slides were incubated for 2 hours at room temperature the cells were then washed twice in 750 μl of PBS and the phagocytic ability of macrophage-derived RAW264.7 cells were observed under a fluorescence microscope and a phase-contrast microscope. In addition, in the activation using IL-1β, the phagocytic ability of macrophage-derived RAW264.7 cells was examined in the same manner as above, except that IL-1β (final concentration: 10 ng/ml) was added in place of LPS.

[4] = test system: RAW264.7 cells; test: IL-6 secretion from LPS-activated RAW264.7 cells (ELISA); assay type: cell-based; conditions: LPS 10 μg/ml, 24 h
[5] = test system: RAW264.7 cells; test: iNOS expression in LPS-activated RAW264.7 cells (Western blot); assay type: cell-based; conditions: LPS 10 μg/ml, 24 h, 0, 1, 3, 10 μg/ml compound
Protocol: Since NO is produced by the enzyme iNOS within cells, it was examined whether this suppression results from suppression of iNOS expression.
Cells were plated in 100 mm dishes at 4×10^5 cells/ml, incubated overnight, and then (±)-DHM2EQ was added at final concentrations of 0, 1, 3, and 10 μg/ml. After 2 hours, LPS (final concentration: 10 μg/ml) was added to stimulate for 24 hours. Then, cell suspension was collected and centrifuged, and cells were lysed in 65 μl of prepared lysis buffer (50 mM Tris-HCl: pH 8.0, 1% NP-40, 20 mM EDTA, 100 mM NaVO4, 0.1 mg/ml leupeptin, 1 mM PMSF). Then, the supernatant of the cell lysate was isolated, each protein concentration was measured, and the predetermined mass of protein was boiled as a sample. This sample was subjected to SDS-PAGE and the proteins on the gel were transferred to a nitrocellulose membrane, which was then reacted with anti-iNOS antibody (Santa Cruz) followed by sheep anti-rabbit IgG antibody (Amersham). Subsequently, color was developed by the ECL detection system, and the signal was detected by exposing the membrane to the film (Fuji Photo Film)

[6] = test system: RAW264.7 cells; test: NO production in activated RAW264.7 cells (Griess reagent, OD570); assay type: cell-based
Protocol: It is known that, in macrophages, the expression of iNOS is induced by lipopolysaccharides such as LPS and interferons such as IFN-γ, thereby triggering NO production. Thus, by using macrophage-derived cultured cells, the influence of (±)-DHM2EQ on NO production when LPS and IFN-γ were used in combination with (±)-DHM2EQ was examined.
(§1) Since NO produced is released out of cells and mixed in the medium, being present as NO2^−, the amount of NO produced was determined by developing a color reaction and measuring optical density (OD570) after the addition of the Griess reagent to the a medium. Then, each amount of NO produced when (±)-DHM2EQ was applied at different concentrations was compared as a relative value by taking OD570 of the sample […] the addition of macrophage activating factor as 100%.
(§2) A cell suspension prepared at 4×10^5 cells/ml was plated at 200 μl/well in 96-well plates (Costar:Acton, Mass.). (±)-DHM2EQ was diluted at 0, 1, 3, and 10 μg/ml and added to each well of the plates. After 2-hour incubation under the condition of 37° C. in 5% CO2, IFN-γ (final concentration: 100 ng/ml) and LPS (final concentration: 10 μg/ml) were added to the wells and then the plates were incubated for 18 hours. 100 μl of the Griess reagent was added to each of the cell suspensions and allowed to react for 10 min, and then OD570 was measured with a microplate reader.

[7] = test system: J774.1 cells; test: NO production in activated J774.1 cells (Griess reagent); assay type: cell-based; conditions: IFN-γ + LPS
Protocol: as §1, §2
The effect of (±)-DHM2EQ on NO production in another activated macrophage-derived cell line, J774.1, was examined in the same manner as described in Example 1.

[8] = test system: RAW264.7 cells; test: TNF-α secretion from IL-1β-activated RAW264.7 cells; assay type: cell-based; conditions: IL-1β 10 ng/ml, 6 h
[9] = test system: RAW264.7 cells; test: Intracellular NO in RAW264.7 cells observed in situ with DAF-2DA fluorescence; assay type: cell-based; conditions: IFN-γ + LPS, 10 μg/ml compound
Protocol: Further, to observe suppression of NO production in situ in macrophage-derived RAW264.7 cells by (±)-DHM2EQ when LPS and IFN-γ are used in combination with (±)-DHM2EQ, intracellular NO was directly observed using diaminofluorescein-2 diacetate (DAF-2DA; Daiich Pure Chemicals).
500 μl of RAW264.7 cells were first plated in each chamber on chamber slides at a concentration of 6×10^5 cells/ml. After 1 day incubation under the condition of 37° C. in 5% CO2, (±)-DHM2EQ was added, followed by 2-hour incubation. Subsequently, IFN-γ (final concentration: 100 ng/ml) and LPS (final concentration: 10 μg/ml) were added, followed by 6-hour incubation. Then, the medium was changed to DAF-2DA-containing phosphate buffered saline (PBS; 8 g/l NaCl, 0.2 g/l KCl, 0.916 g/l Na2HPO4, 0.2 g/l KH2PO4), followed by further 2-hour incubation. The fluorescence images were then observed with a fluorescence microscope.

[10] = test system: NF-κB; test: Inhibition of NF-κB activation; conditions: compared with (±)-DHM2EQ

| SMILES | COX-2 production [1] | IL-1β secretion [2] | phagocytosis of E. coli ([3]; IL-1β stimulation, pretreatment with 10 μg/ml compound) | phagocytosis of E. coli ([3]; LPS stimulation, pretreatment with 10 μg/ml compound) | phagocytosis of E. coli ([3]; LPS stimulation, pretreatment, concentration series) | IL-6 production [4] | iNOS expression [5] | NO production ([6]; IFN-γ 100 ng/ml + LPS 10 μg/ml, 18 h, 0, 1, 3, 10 μg/ml compound) | NO production ([6]; IFN-γ + LPS, 10 μg/ml compound) | NO production ([7]; 10 μg/ml compound) | NO production ([7]; concentration series) | TNF-α production [8] | intracellular NO production (DAF-2DA fluorescence) [9] | inhibitory effect on NF-κB activation [10] |
| --- | --- | --- | --- | --- | --- | --- | --- | --- | --- | --- | --- | --- | --- | --- |
| O=C(NC1=CC(=O)C2OC2C1O)c1ccccc1O (racemic) [(±)-DHM2EQ, 5,6-epoxy-4-hydroxy-3-salicyloylamino-2-cyclohexenone] | suppresses COX-2 production depending on its treatment concentration | suppresses the expression of IL-1β depending on its treatment concentration | suppressed almost to the same level as the control | suppressed almost to the same level as the control | suppressed depending on its treatment concentration | suppresses IL-6 production depending on its treatment concentration | suppresses the expression of iNOS depending on its treatment concentration | suppressed depending on the concentration of (±)-DHM2EQ added | suppressed almost to the control level | suppressed to the control level | suppressed depending on (±)-DHM2EQ treatment concentration | suppresses TNF-α production depending on its treatment concentration | suppressed to the control level |  |
| O=C(NC1=CC(=O)[C@H]2O[C@H]2[C@H]1O)c1ccccc1O [(−)-DHM2EQ] |  |  |  |  |  |  |  |  |  |  |  |  |  | stronger inhibitory effect on NF-κB activation than (±)-DHM2EQ |
